Test results as given in patent US20240166604A1, “HYDROXYTYROSOL NICOTINAMIDE EUTECTIC CRYSTAL, AND PREPARATION METHOD THEREFOR AND COMPOSITION THEREOF” (COCRYSTAL TECHNOLOGY (JIAXING) CO., LTD., priority 2021, published 2024).

Legend:
[1] = Hygroscopicity by dynamic moisture sorption (DVS); assay type: physicochemical; conditions: 80% relative humidity, 25° C.
Method: About 5 mg of powder sample was weighed and put in a dynamic moisture sorption instrument (DVS). The relative humidity range was set at from 0 to 95%, and the temperature was set at 25° C. The weight change of the samples under different environmental humidity conditions were recorded and used to compare the hygroscopicity of the material.

[2] = Chemical stability at 40° C./75% RH, hydroxytyrosol content by HPLC; assay type: physicochemical; conditions: double-layer polyethylene bags; for content of hydroxytyrosol, Day 0: 0 d, initial content set as 100%; for content of hydroxytyrosol, Day 14: 14 d; for content of hydroxytyrosol, Day 14 / content of hydroxytyrosol, Day 30: % of initial content; for content of hydroxytyrosol, Day 30: 30 d
Method: An appropriate amount of powder sample was put in an accelerated stability chamber at 40° C./75% RH with the packaging condition of double-layer polyethylene bags, and the sample was taken at 0 d, 14 d, and 30 d. The content of hydroxytyrosol was determined by high performance liquid chromatography (the content was calculated by external standard method).

| Compound | hygroscopicity (in words) [1] | hygroscopicity (weight change) [1] | content of hydroxytyrosol, Day 0 [2] | content of hydroxytyrosol, Day 14 [2] | content of hydroxytyrosol, Day 30 [2] | content of hydroxytyrosol, Day 30 ([2]; listed as hydroxytyrosol itself) |
| --- | --- | --- | --- | --- | --- | --- |
| co-crystal of hydroxytyrosol and nicotinamide [Example 1] | basically non-hygroscopic | 0.39% | 100.0% | 99.7% |  |  |
| OCCc1ccc(O)c(O)c1 [Hydroxytyrosol itself, Hydroxytyrosol] |  | 16.9% | 100.0% | 98.8% | 92.3% | 92.3% |
